Patent US10669272B2, “Substituted naphthyridinone compounds useful as T cell activators” (BRISTOL-MYERS SQUIBB COMPANY, priority 2018, dated 2020)
Read-outs that look alike come from different tables or passages of the source.

Key:
[1] = test system: Human venous whole blood; experiment: Human whole blood IFN-γ assay; type: cell-based; conditions: human whole blood, read-out: INFg Whole Blood Normalized Agonist EC50;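 further: blood from healthy donors exposed to compound for 1 h before stimulation with anti-CD3 and anti-CD28 at 1 µg/mL each, IFN-γ quantified in supernatant by AlphaLISA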
[2] = target: T1, human DGKζ (Homo sapiens, UniProt Q13574); experiment: DGKζ LIPGLO assay (extruded liposome substrate), in vitro DGK inhibition; type: biochemical; conditions: read-out: DGKz LIPGLO IC50
T1 construct: TVMV protease cleavage site (C); Hexa-His (C); made in house; host or cells: Sf9 insect cells (baculovirus, Bac-to-Bac)

[3] = target: T2, human DGKα (Homo sapiens, UniProt P23743); experiment: DGKα LIPGLO assay (extruded liposome substrate), in vitro DGK inhibition; type: biochemical; conditions: read-out: DGKa LIPGLO IC50
T2 construct: TVMV protease cleavage site (C); Hexa-His (C); made in house; host or cells: Sf9 insect cells (baculovirus, Bac-to-Bac)

[4] = normalized to 3 μM reference compound with anti-CD3 plus anti-CD28 as 100% activation

T2 sequence (P23743 with tags, fused parts or gaps): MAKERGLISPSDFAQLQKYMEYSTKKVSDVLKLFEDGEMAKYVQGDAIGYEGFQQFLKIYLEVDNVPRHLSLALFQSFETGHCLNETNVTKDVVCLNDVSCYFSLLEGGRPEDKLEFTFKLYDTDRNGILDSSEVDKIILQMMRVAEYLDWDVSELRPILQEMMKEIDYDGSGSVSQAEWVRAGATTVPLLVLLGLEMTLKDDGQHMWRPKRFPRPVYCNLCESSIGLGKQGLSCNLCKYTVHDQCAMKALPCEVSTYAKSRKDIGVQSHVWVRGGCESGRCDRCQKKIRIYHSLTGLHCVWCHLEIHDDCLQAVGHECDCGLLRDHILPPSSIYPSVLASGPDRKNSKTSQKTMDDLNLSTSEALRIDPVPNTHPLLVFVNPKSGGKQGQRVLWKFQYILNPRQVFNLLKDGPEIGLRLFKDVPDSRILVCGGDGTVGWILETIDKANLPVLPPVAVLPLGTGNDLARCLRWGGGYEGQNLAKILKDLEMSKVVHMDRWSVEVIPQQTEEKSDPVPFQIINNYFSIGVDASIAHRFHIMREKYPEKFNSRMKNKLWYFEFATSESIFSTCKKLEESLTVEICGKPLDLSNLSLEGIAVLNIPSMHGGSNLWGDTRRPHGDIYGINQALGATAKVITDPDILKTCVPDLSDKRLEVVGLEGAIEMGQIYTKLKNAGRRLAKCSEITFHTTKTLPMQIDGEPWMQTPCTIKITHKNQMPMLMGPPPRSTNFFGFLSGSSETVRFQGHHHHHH
T1 sequence (Q13574 with tags, fused parts or gaps isoform Q13574-4): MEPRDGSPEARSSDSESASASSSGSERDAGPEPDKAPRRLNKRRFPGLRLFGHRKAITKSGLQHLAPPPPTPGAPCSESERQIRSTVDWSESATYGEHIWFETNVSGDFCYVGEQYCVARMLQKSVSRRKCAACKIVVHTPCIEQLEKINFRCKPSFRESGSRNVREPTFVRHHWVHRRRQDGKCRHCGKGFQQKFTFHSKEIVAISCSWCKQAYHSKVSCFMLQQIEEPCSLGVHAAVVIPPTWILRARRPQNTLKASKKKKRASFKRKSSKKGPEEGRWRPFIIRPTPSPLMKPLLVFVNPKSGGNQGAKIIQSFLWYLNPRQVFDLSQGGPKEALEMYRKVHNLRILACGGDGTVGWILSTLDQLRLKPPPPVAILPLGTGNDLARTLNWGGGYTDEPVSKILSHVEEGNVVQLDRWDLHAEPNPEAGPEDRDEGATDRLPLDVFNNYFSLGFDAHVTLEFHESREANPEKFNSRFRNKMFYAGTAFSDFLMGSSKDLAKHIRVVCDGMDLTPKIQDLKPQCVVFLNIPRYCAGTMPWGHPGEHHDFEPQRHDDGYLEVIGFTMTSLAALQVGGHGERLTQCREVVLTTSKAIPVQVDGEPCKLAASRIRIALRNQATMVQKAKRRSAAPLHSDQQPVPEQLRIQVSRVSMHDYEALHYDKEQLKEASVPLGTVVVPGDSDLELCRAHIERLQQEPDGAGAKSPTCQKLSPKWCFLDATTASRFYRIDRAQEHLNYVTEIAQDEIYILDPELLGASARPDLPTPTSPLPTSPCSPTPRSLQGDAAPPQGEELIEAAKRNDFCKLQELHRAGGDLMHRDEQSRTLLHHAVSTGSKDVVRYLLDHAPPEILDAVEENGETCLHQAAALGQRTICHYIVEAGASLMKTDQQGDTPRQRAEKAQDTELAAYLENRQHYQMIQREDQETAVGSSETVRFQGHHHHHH

Compound | IC50 ([2]; liposome (LIPGLO) assay) | IC50 ([2]; DGKζ liposome (LIPGLO) assay) | IC50 ([3]; DGKα liposome (LIPGLO) assay) | other results
C[C@@H]1CN(c2cc(=O)n(C)c3ccc(C#N)nc23)[C@@H](C)CN1C(c1ccccc1)c1ccc(F)cc1 (single isomer, unassigned) [Example 184] |  |  |  | EC50 [1, 4]: 0.57 µM
C[C@@H]1CN(c2c(C#N)c(=O)n(C)c3ccc(C#N)nc23)CCN1C(c1ccccc1)c1ccc(Cl)cc1 (single isomer, unassigned) [Example 887] |  |  |  | EC50 ([1]; anti-CD3 plus anti-CD28, 24 hours, 3 μM reference compound = 100% activation): 1.6 µM
CC(=O)N1CCOc2c(CN3C[C@H](C)N(c4cc(=O)n(C)c5ccc(C#N)nc45)C[C@H]3C)cccc21 [Example 631] | 4.3 µM |  |  | IC50 ([3]; liposome (LIPGLO) assay): 1.4 µM
C[C@@H]1CN(c2cc(=O)n(C)c3ccc(C#N)nc23)[C@@H](C)CN1Cc1cccc2c1N(C)C(=O)CO2 [Example 635] | 150 µM |  |  | IC50 ([3]; liposome (LIPGLO) assay): 8 µM
CC(c1ccc(C(=O)O)cc1)N1C[C@H](C)N(c2c(C#N)c(=O)n(C)c3ccc(C#N)nc23)C[C@H]1C (some centres unmarked) [Example 786] |  | 83 µM | > 250 µM | 
CC(c1ccc(C(=O)O)cc1)N1C[C@H](C)N(c2c(C#N)c(=O)n(C)c3ccc(C#N)nc23)C[C@H]1C (some centres unmarked) [Example 787] |  | 83 µM | 200 µM | 
Cc1ccc(C(c2ccc(Cl)cc2)N2C[C@H](C)N(c3c(C#N)c(=O)n(C)c4ccc(C#N)nc34)C[C@H]2C)cc1 (some centres unmarked) [Example 825] |  | 3.2 µM | 23 µM | 
Cc1ccc(C(c2ccc(Cl)cc2)N2C[C@H](C)N(c3c(C#N)c(=O)n(C)c4ccc(C#N)nc34)C[C@H]2C)cc1 (some centres unmarked) [Example 826] |  | 3.1 µM | 43 µM | 
C[C@@H]1CN(c2c(C#N)c(=O)n(C)c3ccc(C#N)nc23)CCN1C(c1ccccc1)c1cc(F)cc(F)c1 (some centres unmarked) [Example 874] |  | 2.2 µM | 14 µM | 
C[C@@H]1CN(c2c(C#N)c(=O)n(C)c3ccc(C#N)nc23)CCN1C(c1ccc(Cl)cc1)c1ncccc1F (some centres unmarked) [Example 909] |  | 16 µM | 3.4 µM | 
C[C@@H]1CN(c2c(C#N)c(=O)n(C)c3ccc(C#N)nc23)CCN1C(c1ccc(Cl)cc1)c1ncccc1F (some centres unmarked) [Example 913] |  | 5.5 µM | 2.1 µM | 
C[C@@H]1CN(c2c(C#N)c(=O)n(C)c3ccc(C#N)nc23)CCN1C(c1ccc(Cl)cc1)c1ccc(Cl)cn1 (some centres unmarked) [Example 931] |  | 2.7 µM | 0.8 µM | 
Cc1ccc(C(c2ccc(F)cc2Cl)N2CCN(c3c(C#N)c(=O)n(C)c4ccc(C#N)nc34)C[C@H]2C)nc1 (some centres unmarked) [Example 938] |  | 2.8 µM | 5.9 µM | 
C[C@@H]1CN(c2c(C#N)c(=O)n(C)c3ccc(C#N)nc23)CCN1C(c1ccc(F)cc1)c1cnccn1 (some centres unmarked) [Example 943] |  | 6.7 µM | 1.1 µM | 
CC(c1ccc(C(=O)O)cc1)N1CCN(c2c(C#N)c(=O)n(C)c3ccc(C#N)nc23)C[C@H]1C (some centres unmarked) [Example 973] |  | > 250 µM | > 250 µM | 

Continued, in another order:

IC50 ([2]; liposome (LIPGLO) assay) | IC50 ([2]; DGKζ liposome (LIPGLO) assay) | IC50 ([3]; DGKα liposome (LIPGLO) assay) | Compound | other results
0.89 µM |  |  | CCC(c1cc(Cl)cc2c1OCC2)N1C[C@H](C)N(c2cc(=O)n(C)c3ccc(C#N)nc23)C[C@H]1C (single isomer, unassigned) [Example 357] | EC50 [1, 4]: 13 µM
11 µM |  |  | C[C@@H]1CN(c2cc(=O)n(C)c3ccc(C#N)nc23)[C@@H](C)CN1CCc1ccccc1 [Example 632] | IC50 ([3]; liposome (LIPGLO) assay): 6.5 µM
10 µM |  |  | Cc1ccc(CCN2C[C@H](C)N(c3cc(=O)n(C)c4ccc(C#N)nc34)C[C@H]2C)cc1 [Example 633] | IC50 ([3]; liposome (LIPGLO) assay): 6.7 µM
1.1 µM |  |  | CC(c1ccc(OC(F)F)cn1)N1C[C@H](C)N(c2cc(=O)n(C)c3ccc(C#N)nc23)C[C@H]1C (some centres unmarked) [Example 653] | IC50 ([3]; liposome (LIPGLO) assay): 0.094 µM
37 µM |  |  | C[C@@H]1CN(c2cc(=O)n(C)c3ccc(C#N)nc23)[C@@H](C)CN1C(c1ccc(F)cc1)c1cn(C)cn1 (some centres unmarked) [Example 708] | IC50 ([3]; liposome (LIPGLO) assay): 1 µM
 | 1.1 µM | 0.63 µM | C[C@@H]1CN(c2cc(=O)n(C)c3ccc(C#N)nc23)[C@@H](C)CN1C(c1ccc(F)cc1)c1nnc(C2CC2)s1 (stereo partly drawn) [Example 774, 8-((2S,5R)-4-((5-cyclopropyl-1,3,4-thiadiazol-2-yl)(4-fluorophenyl)methyl)-2,5-dimethylpiperazin-1-yl)-5-methyl-6-oxo-5,6-dihydro-1,5-naphthyridine-2-carbonitrile] | 
 | 0.038 µM | 0.055 µM | C[C@@H]1CN(c2cc(=O)n(C)c3ccc(C#N)nc23)[C@@H](C)CN1C(c1ccc(F)cc1)c1nc(C2CC2)co1 (stereo partly drawn) [Example 776, 8-((2S,5R)-4-((4-cyclopropyloxazol-2-yl)(4-fluorophenyl)methyl)-2,5-dimethylpiperazin-1-yl)-5-methyl-6-oxo-5,6-dihydro-1,5-naphthyridine-2-carbonitrile] | 
 | > 250 µM | 4.8 µM | CC(c1ccc(C(F)(F)F)cc1)N1C[C@H](C)N(c2c(C#N)c(=O)n(C)c3ccc(C#N)nc23)C[C@H]1C (some centres unmarked) [Example 788] | 
